26 compounds from patent US20230089073A1 (Carmot Therapeutics, Inc., priority 2021, published 2023) can be followed below.

For this test, the target named is T1, human GLP-1 receptor (Homo sapiens, UniProt P43220).
T1 construct: expressed in transfected cells
T1 sequence (P43220 24-463): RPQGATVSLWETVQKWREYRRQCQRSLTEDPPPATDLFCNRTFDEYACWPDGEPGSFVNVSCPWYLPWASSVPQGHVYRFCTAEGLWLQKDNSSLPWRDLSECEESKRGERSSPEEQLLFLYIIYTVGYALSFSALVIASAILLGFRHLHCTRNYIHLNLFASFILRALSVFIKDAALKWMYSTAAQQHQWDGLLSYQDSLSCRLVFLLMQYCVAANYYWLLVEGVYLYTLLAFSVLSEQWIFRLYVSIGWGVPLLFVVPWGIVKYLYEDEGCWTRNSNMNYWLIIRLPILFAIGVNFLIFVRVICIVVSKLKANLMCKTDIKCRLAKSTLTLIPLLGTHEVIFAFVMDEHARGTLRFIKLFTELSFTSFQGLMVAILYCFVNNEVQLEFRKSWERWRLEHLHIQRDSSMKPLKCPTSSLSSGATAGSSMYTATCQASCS
The test can be described thus: GLP-1R cAMP Assay. As to conditions: cAMP accumulation in CHO cells stably overexpressing the human GLP-1 receptor; 30 min treatment; HitHunter cAMP kit; read-out: EC50. It counts as cell-based. Put shortly:
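CHO cells stably overexpressing human GLP-1R, 10,000 cells/well, treated with compound in 20-point dose response in triplicate for 30 min. cAMP accumulation read by enzyme-complementation luminescence after lysis and overnight incubation; dose-response curves fitted.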
Broadly, the EC50 is the concentration that produces a half-maximal response. Turning to `CCn1cncc1Cn1c(CN2CCN(C(=O)c3cnc(COc4ccc(C5CC5)cc4Cl)o3)CC2)nc2ccc(C(=O)O)cc21` [Compound 160, 2-[(4-{2-[(2-chloro-4-cyclopropylphenoxy)methyl]-1,3-oxazole-5-carbonyl}piperazin-1-yl)methyl]-1-[(1-ethyl-1H-imidazol-5-yl)methyl]-1H-1,3-benzodiazole-6-carboxylic acid], the EC50 is < 50 nM.

Consider `CCn1cncc1Cn1c(CN2CCC(C(F)(F)c3cccc(COc4ccc(Cl)cc4Cl)c3)CC2)nc2ccc(C(=O)O)cc21` [Compound 161, 2-{[4-({3-[(2,4-dichlorophenoxy)methyl]phenyl}difluoromethyl)piperidin-1-yl]methyl}-1-[(1-ethyl-1H-imidazol-5-yl)methyl]-1H-1,3-benzodiazole-6-carboxylic acid], for which the EC50 was < 50 nM.

Regarding `O=C(O)c1ccc2nc(CN3CCC(Cc4ccc(F)c(COc5ccc(Cl)cc5Cl)c4)CC3)n(C[C@@H]3CCO3)c2c1` [Compound 162, 2-{[4-({3-[(2,4-dichlorophenoxy)methyl]-4-fluorophenyl}methyl)piperidin-1-yl]methyl}-1-{[(2S)-oxetan-2-yl]methyl}-1H-1,3-benzodiazole-6-carboxylic acid], the concentration giving a half-maximal response (EC50) is < 50 nM.

`CCn1cncc1Cn1c(CN2CCC(Cc3cccc(COc4ccc(Cl)cc4C#N)c3)CC2)nc2ccc(C(=O)O)cc21` [Compound 165, 2-{[4-({3-[(4-chloro-2-cyanophenoxy)methyl]phenyl}methyl)piperidin-1-yl]methyl}-1-[(1-ethyl-1H-imidazol-5-yl)methyl]-1H-1,3-benzodiazole-6-carboxylic acid]: the EC50 is < 50 nM.

As to `N#Cc1cc(Cl)ccc1OCc1cccc(CC2CCN(Cc3nc4ccc(C(=O)O)cc4n3C[C@@H]3CCO3)CC2)c1` [Compound 166, 2-{[4-({3-[(4-chloro-2-cyanophenoxy)methyl]phenyl}methyl)piperidin-1-yl]methyl}-1-{[(2S)-oxetan-2-yl]methyl}-1H-1,3-benzodiazole-6-carboxylic acid], the EC50 was < 50 nM.

For the compound `O=C(O)c1ccc2nc(CN3CCC(Oc4ccnc(COc5ccc(Cl)cc5Cl)c4)CC3)n(C[C@@H]3CCO3)c2c1` [Compound 168, 2-{[4-({2-[(2,4-dichlorophenoxy)methyl]pyridin-4-yl}oxy)piperidin-1-yl]methyl}-1-{[(2S)-oxetan-2-yl]methyl}-1H-1,3-benzodiazole-6-carboxylic acid], the EC50 was < 50 nM.

With `O=C(O)c1ccc2nc(CN3CCC(Oc4ccnc(COc5ccc(Cl)cc5Cl)c4)CC3)n(C[C@H]3CCOC3)c2c1` [Compound 169, 2-{[4-({2-[(2,4-dichlorophenoxy)methyl]pyridin-4-yl}oxy)piperidin-1-yl]methyl}-1-{[(3R)-oxolan-3-yl]methyl}-1H-1,3-benzodiazole-6-carboxylic acid], the half-maximal effective concentration (EC50) is < 50 nM.

Turning to `O=C(O)c1ccc2nc(CN3CCC(Oc4ccnc(COc5ccc(Cl)cc5Cl)c4)CC3)n(Cc3ncco3)c2c1` [Compound 170, 2-{[4-({2-[(2,4-dichlorophenoxy)methyl]pyridin-4-yl}oxy)piperidin-1-yl]methyl}-1-[(1,3-oxazol-2-yl)methyl]-1H-1,3-benzodiazole-6-carboxylic acid], the EC50 is < 50 nM.

For the compound `O=C(O)c1ccc2nc(CN3CCC(Oc4cccc(COc5ccc(Cl)cc5Cl)c4)CC3)n(C[C@@H]3CCO3)c2c1` [Compound 174, 2-[(4-{3-[(2,4-dichlorophenoxy)methyl]phenoxy}piperidin-1-yl)methyl]-1-{[(2S)-oxetan-2-yl]methyl}-1H-1,3-benzodiazole-6-carboxylic acid], the EC50 is < 50 nM.

Regarding `CCn1cncc1Cn1c(CN2CCC(Oc3cc(COc4ccc(Cl)cc4Cl)ccn3)CC2)nc2ccc(C(=O)O)cc21` [Compound 179, 2-{[4-({4-[(2,4-dichlorophenoxy)methyl]pyridin-2-yl}oxy)piperidin-1-yl]methyl}-1-[(1-ethyl-1H-imidazol-5-yl)methyl]-1H-1,3-benzodiazole-6-carboxylic acid], the concentration giving a half-maximal response (EC50) is < 50 nM.

In the case of `N#Cc1cc(Cl)ccc1OCc1cc(OC2CCN(Cc3nc4ccc(C(=O)O)cc4n3C[C@@H]3CCO3)CC2)ccn1` [Compound 182, 2-{[4-({2-[(4-chloro-2-cyanophenoxy)methyl]pyridin-4-yl}oxy)piperidin-1-yl]methyl}-1-{[(2S)-oxetan-2-yl]methyl}-1H-1,3-benzodiazole-6-carboxylic acid], the EC50 was < 50 nM.

As to `N#Cc1cc(F)ccc1OCc1cc(OC2CCN(Cc3nc4ccc(C(=O)O)cc4n3C[C@@H]3CCO3)CC2)ccn1` [Compound 183, 2-{[4-({2-[(2-cyano-4-fluorophenoxy)methyl]pyridin-4-yl}oxy)piperidin-1-yl]methyl}-1-{[(2S)-oxetan-2-yl]methyl}-1H-1,3-benzodiazole-6-carboxylic acid], the EC50 is < 50 nM.

Regarding `N#Cc1cc(F)ccc1OCc1cccc(CC2CCN(Cc3nc4ccc(C(=O)O)cc4n3C[C@@H]3CCO3)CC2)c1` [Compound 187, 2-{[4-({3-[(2-cyano-4-fluorophenoxy)methyl]phenyl}methyl)piperidin-1-yl]methyl}-1-{[(2S)-oxetan-2-yl]methyl}-1H-1,3-benzodiazole-6-carboxylic acid], the EC50 was < 50 nM.

With `CCn1cncc1Cn1c(CN2CCC(Cc3cccc(COc4ccc(F)cc4C#N)c3)CC2)nc2ccc(C(=O)O)cc21` [Compound 188, 2-{[4-({3-[(2-cyano-4-fluorophenoxy)methyl]phenyl}methyl)piperidin-1-yl]methyl}-1-[(1-ethyl-1H-imidazol-5-yl)methyl]-1H-1,3-benzodiazole-6-carboxylic acid], the EC50 was < 50 nM.

Consider `CCn1cncc1Cn1c(CN2CCC(Oc3cccc(COc4ccc(Cl)cc4Cl)n3)CC2)nc2ccc(C(=O)O)cc21` [Compound 199, 2-{[4-({6-[(2,4-dichlorophenoxy)methyl]pyridin-2-yl}oxy)piperidin-1-yl]methyl}-1-[(1-ethyl-1H-imidazol-5-yl)methyl]-1H-1,3-benzodiazole-6-carboxylic acid], for which the half-maximal effective concentration (EC50) is < 50 nM.

In the case of `O=C(O)c1ccc2nc(CN3CCC(Cc4cccc(OCc5ccc(Cl)cc5Cl)n4)CC3)n(C[C@@H]3CCO3)c2c1` [Compound 200, 2-{[4-({6-[(2,4-dichlorophenyl)methoxy]pyridin-2-yl}methyl)piperidin-1-yl]methyl}-1-{[(2S)-oxetan-2-yl]methyl}-1H-1,3-benzodiazole-6-carboxylic acid], the EC50 was < 50 nM.

On to `O=C(O)c1ccc2nc(CN3CCC(Oc4cccc(OCc5ccc(F)cc5Cl)c4)CC3)n(C[C@@H]3CCO3)c2c1` [Compound 207], for which the EC50 was < 50 nM.

For the compound `CCn1cncc1Cn1c(CN2CCC(Oc3cnc(COc4ccc(Cl)cc4Cl)o3)CC2)nc2ccc(C(=O)O)cc21` [Compound 214, 2-{[4-({2-[(2,4-dichlorophenoxy)methyl]-1,3-oxazol-5-yl}oxy)piperidin-1-yl]methyl}-1-[(1-ethyl-1H-imidazol-5-yl)methyl]-1H-1,3-benzodiazole-6-carboxylic acid], the EC50 was < 50 nM.

On to `CCn1cncc1Cn1c(CN2CCC(Oc3cccc(COc4ccc(Cl)cc4C#N)c3)CC2)nc2ccc(C(=O)O)cc21` [Compound 215, 2-[(4-{3-[(4-chloro-2-cyanophenoxy)methyl]phenoxy}piperidin-1-yl)methyl]-1-[(1-ethyl-1H-imidazol-5-yl)methyl]-1H-1,3-benzodiazole-6-carboxylic acid], for which the EC50 was < 50 nM.

Turning to `O=C(O)c1ccc2nc(CN3CCC(Oc4cccc(COc5ccc(Cl)cc5Cl)c4)CC3)n(Cc3ncco3)c2c1` [Compound 217, 2-[(4-{3-[(2,4-dichlorophenoxy)methyl]phenoxy}piperidin-1-yl)methyl]-1-[(1,3-oxazol-2-yl)methyl]-1H-1,3-benzodiazole-6-carboxylic acid], the EC50 is < 50 nM.

For the compound `O=C(O)c1ccc2nc(CN3CCC(Oc4cccc(COc5ccc(Cl)cc5F)c4)CC3)n(C[C@@H]3CCO3)c2c1` [Compound 221, 2-[(4-{3-[(4-chloro-2-fluorophenoxy)methyl]phenoxy}piperidin-1-yl)methyl]-1-{[(2S)-oxetan-2-yl]methyl}-1H-1,3-benzodiazole-6-carboxylic acid], the EC50 was < 50 nM.

Regarding `O=C(O)c1ccc2nc(CN3CCC(Oc4cccc(COc5ccc(Cl)cc5Cl)c4)CC3)n(C[C@@H]3CCO3)c2c1F` [Compound 224, 2-[(4-{3-[(2,4-dichlorophenoxy)methyl]phenoxy}piperidin-1-yl)methyl]-7-fluoro-1-{[(2S)-oxetan-2-yl]methyl}-1H-1,3-benzodiazole-6-carboxylic acid], the EC50 was < 50 nM.

`O=C(O)c1ccc2nc(CN3CCC(Oc4ccnc(COc5ccc(Cl)cc5Cl)c4)CC3)n(C[C@@H](O)CCO)c2c1` [Compound 227, 2-{[4-({2-[(2,4-dichlorophenoxy)methyl]pyridin-4-yl}oxy)piperidin-1-yl]methyl}-1-[(2S)-2,4-dihydroxybutyl]-1H-1,3-benzodiazole-6-carboxylic acid]: the EC50 was < 50 nM.

Regarding `CCn1cncc1Cn1c(CN2CCC(Oc3cccc(COc4ccc(Cl)cc4F)c3)CC2)nc2ccc(C(=O)O)cc21` [Compound 231, 2-[(4-{3-[(4-chloro-2-fluorophenoxy)methyl]phenoxy}piperidin-1-yl)methyl]-1-[(1-ethyl-1H-imidazol-5-yl)methyl]-1H-1,3-benzodiazole-6-carboxylic acid], the EC50 is < 50 nM.

Take `N#Cc1cc(Cl)ccc1OCc1cccc(OC2CCN(Cc3nc4ccc(C(=O)O)cc4n3Cc3ncco3)CC2)c1` [Compound 232, 2-[(4-{3-[(4-chloro-2-cyanophenoxy)methyl]phenoxy}piperidin-1-yl)methyl]-1-[(1,3-oxazol-2-yl)methyl]-1H-1,3-benzodiazole-6-carboxylic acid]: the EC50 was < 50 nM.

With `N#Cc1cc(Cl)ccc1OCc1cc(OC2CCN(Cc3nc4ccc(C(=O)O)cc4n3Cc3cnco3)CC2)ccn1` [Compound 240, 2-{[4-({2-[(4-chloro-2-cyanophenoxy)methyl]pyridin-4-yl}oxy)piperidin-1-yl]methyl}-1-[(1,3-oxazol-5-yl)methyl]-1H-1,3-benzodiazole-6-carboxylic acid], the 50% effective concentration (EC50) was < 50 nM.
